Results on eleven compounds are retold here after PubChem BioAssay (NCI).

Among the test systems are 786-0 renal; HCT-116 colon; SNB-75 CNS; PC-3 prostate; M14 melanoma; MDA-MB-231 breast; HCC-2998 colon; UACC-257 melanoma; HOP-92 NSCLC; SF-539 CNS; HS 578T breast; OVCAR-3 ovarian; UACC-62 melanoma; NCI/ADR-RES ovarian; SN12C renal.
Assay in all cases: NCI tumour cell line growth inhibition, 48 h

Values joined by “and” are separate entries in the source; they are usually repeats but may differ in a detail not shown here. Equal values may be shown once.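 A five-concentration, 48-hour dose response in 96-well plates underlies each endpoint, interpolated linearly between surrounding concentrations. Abbreviation: GI50, concentration required for 50% inhibition of growth. The concentration for full growth arrest is given as TGI.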

As to `Cc1ccc2nc(-c3ccc(N)c(I)c3)sc2c1`, the TGI with 786-0 renal was 32.7 µM; with HCT-116 colon it was over 100 µM; in the assay with SNB-75 CNS, over 100 µM; with PC-3 prostate, 60.6 µM; in the assay with M14 melanoma it was over 100 µM; in the assay with MDA-MB-231 breast, over 100 µM. In addition, the TGI was 26.4 µM in the assay with HCC-2998 colon; over 100 µM in the assay with UACC-257 melanoma; 71.5 µM with HOP-92 NSCLC; 68.3 µM in the assay with SF-539 CNS; over 100 µM with HS 578T breast; over 100 µM in the assay on OVCAR-3 ovarian. Further, the TGI in the assay with UACC-62 melanoma and in the assay on NCI/ADR-RES ovarian was over 100 µM each time.
Consider `CCOC(=O)C1=C(Nc2cccc(OC)c2)OCC1=O`, for which the TGI in the assay on 786-0 renal, with HCT-116 colon, with SNB-75 CNS, in the assay with PC-3 prostate, in the assay on M14 melanoma and in the assay on MDA-MB-231 breast was over 100 µM each time. The TGI in the assay on HCC-2998 colon, with UACC-257 melanoma, in the assay with HOP-92 NSCLC, with SF-539 CNS, in the assay with HS 578T breast and in the assay with UACC-62 melanoma was over 100 µM each time. This compound registered a TGI with NCI/ADR-RES ovarian of over 100 µM.
Regarding `OCC1OC(n2cnc3c2NC=NC[C@H]3O)C(O)C1O` (some centres not stated), the TGI with HCT-116 colon is over 450 µM; with SNB-75 CNS it was over 450 µM; with SN12C renal it was over 450 µM; in the assay on HCC-2998 colon it was over 450 µM; with UACC-257 melanoma, over 450 µM; with HOP-92 NSCLC it was over 414 µM. For the same compound, the TGI in the assay on SF-539 CNS, with OVCAR-3 ovarian, with UACC-62 melanoma and with NCI/ADR-RES ovarian was over 450 µM in each case.
Take `COc1ccc2c(c1)CC[C@@H]1[C@@H]2CC[C@]2(C)C(=O)/C(=C/c3ccc(OC)c(OC)c3)C[C@@H]12`: the TGI with 786-0 renal, with HCT-116 colon, with SNB-75 CNS, in the assay on PC-3 prostate, in the assay on M14 melanoma and in the assay on MDA-MB-231 breast was over 100 µM in each case. In addition, the TGI with HCC-2998 colon, with HOP-92 NSCLC, with SF-539 CNS, with OVCAR-3 ovarian, with UACC-62 melanoma and in the assay on NCI/ADR-RES ovarian was over 100 µM each time.
Consider `CCC1c2[nH]c3ccccc3c2C[C@H]2C(=O)NC(COC(C)(C)C)C(=O)N12` (some centres not stated), for which the TGI is over 100 µM in the assay on 786-0 renal; over 100 µM in the assay with HCT-116 colon; 78.6 µM in the assay with SNB-75 CNS; 91.9 µM in the assay with PC-3 prostate; over 100 µM in the assay with M14 melanoma; over 100 µM in the assay on MDA-MB-231 breast. Further, the TGI in the assay on SN12C renal was over 100 µM; in the assay with UACC-257 melanoma it was over 100 µM; in the assay with HOP-92 NSCLC, 90.6 µM; in the assay on HS 578T breast it was over 100 µM; in the assay with OVCAR-3 ovarian it was over 100 µM; in the assay with UACC-62 melanoma, over 100 µM. Moreover, the TGI in the assay with NCI/ADR-RES ovarian is over 100 µM.
With `CC(=O)OCC1OC(Nc2ncc(-c3ccc(C)cc3)s2)C(OC(C)=O)C(OC(C)=O)C1OC(C)=O` (configuration not stated), the TGI is over 62.5 µM in the assay with HCT-116 colon; over 100 µM with SNB-75 CNS; 62.2 µM with SN12C renal; over 62.9 µM in the assay on HCC-2998 colon; 58.3 µM with UACC-257 melanoma; over 100 µM in the assay with HOP-92 NSCLC. For the same compound, the TGI in the assay with SF-539 CNS is over 82.6 µM; in the assay with OVCAR-3 ovarian, over 88.1 µM; with UACC-62 melanoma it was over 77.2 µM; in the assay with NCI/ADR-RES ovarian, 78 µM.
As for `O=[N+]([O-])c1ccc(-n2nnc(C3=NCCCN3)c2-c2ccc(Cl)cc2)cc1`, the TGI in the assay with 786-0 renal, with HCT-116 colon, in the assay with SNB-75 CNS, in the assay with M14 melanoma, in the assay on SN12C renal and with HCC-2998 colon was over 100 µM in each case. The TGI in the assay with UACC-257 melanoma, in the assay with HOP-92 NSCLC, in the assay with SF-539 CNS, in the assay on OVCAR-3 ovarian and in the assay with UACC-62 melanoma was over 100 µM throughout.
For the compound `C=C1C(=O)O[C@H]2[C@H]1[C@@H](OC(=O)C=C(C)C)CC1=C[C@@H](C[C@@]3(C)O[C@@H]23)OC1=O`, the TGI in the assay with HCT-116 colon was 16.5 µM; in the assay with SNB-75 CNS, 33.3 µM; with SN12C renal, 12.7 µM; in the assay on HCC-2998 colon, 34.9 µM; in the assay on UACC-257 melanoma, 6.88 µM; in the assay with HOP-92 NSCLC, 4.15 µM. For the same compound, the TGI in the assay with SF-539 CNS is 5.29 µM; in the assay with OVCAR-3 ovarian it was 4.77 µM and 15.6 µM; with UACC-62 melanoma, 12.8 µM and 31.6 µM; in the assay with NCI/ADR-RES ovarian it was 6.18 µM and 13.4 µM. The GI50 in the assay with OVCAR-3 ovarian is 4.92 µM; in the assay on UACC-62 melanoma, 11.3 µM; in the assay with NCI/ADR-RES ovarian it was 3.89 µM.
Consider `CO[C@H]1[C@@H](O)[C@@H](C)O[C@@H](O[C@H]2CC[C@@]3(C)[C@H](CC[C@@H]4[C@@H]3CC[C@]3(C)[C@@H](C5=CC(=O)OC5)[C@@H](OC(C)=O)C[C@]43O)C2)[C@@H]1O`, for which the TGI in the assay with 786-0 renal turned out to be 0.067 µM; in the assay on HCT-116 colon it was 0.109 µM; in the assay with SNB-75 CNS, 0.332 µM; in the assay with PC-3 prostate, 0.113 µM; in the assay on M14 melanoma, 0.189 µM; with MDA-MB-231 breast it was 0.972 µM. The TGI was determined as 0.824 µM in the assay with HCC-2998 colon; 0.239 µM with UACC-257 melanoma; 0.577 µM in the assay with HOP-92 NSCLC; 0.091 µM in the assay on SF-539 CNS; 0.124 µM with HS 578T breast; 0.0905 µM with OVCAR-3 ovarian. Further, the TGI in the assay on UACC-62 melanoma worked out at 0.215 µM; in the assay with NCI/ADR-RES ovarian, 0.175 µM.
With `N#C/C(=C\c1ccc(O)c(O)c1)C(N)=O`, the TGI in the assay with 786-0 renal was over 100 µM; in the assay with HCT-116 colon it was 67.9 µM; with SNB-75 CNS, over 100 µM; with M14 melanoma, over 100 µM; in the assay on SN12C renal, over 100 µM; in the assay on HCC-2998 colon, over 100 µM. For the same compound, the TGI with UACC-257 melanoma was over 100 µM; in the assay with HOP-92 NSCLC, over 100 µM; in the assay on SF-539 CNS it was over 100 µM; in the assay on OVCAR-3 ovarian, 86.1 µM; with UACC-62 melanoma it was over 100 µM.
Consider `COc1cc2c(cc1OC)C(O)[C@H](Br)C(C)(C)O2` (some centres not stated), for which the TGI in the assay on 786-0 renal, with HCT-116 colon, in the assay on SNB-75 CNS, in the assay with M14 melanoma, in the assay on SN12C renal and in the assay with HCC-2998 colon was over 100 µM throughout. The TGI in the assay with UACC-257 melanoma, in the assay on HOP-92 NSCLC, in the assay on SF-539 CNS, in the assay with OVCAR-3 ovarian and with UACC-62 melanoma was over 100 µM in each case.
